Source: ChEMBL document CHEMBL5543153, “Discovery of a Potent Dual Son of Sevenless 1 (SOS1) and Epidermal Growth Factor Receptor (EGFR) Inhibitor for the Treatment of Prostate Cancer” (J Med Chem, 2024)
Calls of active or inactive are those of the source. No cut-off for these calls is given here.

Tests used:
[1] = target: T1, Son of sevenless homolog 1 (Homo sapiens) (UniProt Q07889); assay: Inhibition of SOS1 in human PC-3 cells assessed as downregulation of ERK phosphorylation at 0.5 uM incubated for 15 mins by Western blotting analysis; format: cell-based
T1 sequence (whole entry): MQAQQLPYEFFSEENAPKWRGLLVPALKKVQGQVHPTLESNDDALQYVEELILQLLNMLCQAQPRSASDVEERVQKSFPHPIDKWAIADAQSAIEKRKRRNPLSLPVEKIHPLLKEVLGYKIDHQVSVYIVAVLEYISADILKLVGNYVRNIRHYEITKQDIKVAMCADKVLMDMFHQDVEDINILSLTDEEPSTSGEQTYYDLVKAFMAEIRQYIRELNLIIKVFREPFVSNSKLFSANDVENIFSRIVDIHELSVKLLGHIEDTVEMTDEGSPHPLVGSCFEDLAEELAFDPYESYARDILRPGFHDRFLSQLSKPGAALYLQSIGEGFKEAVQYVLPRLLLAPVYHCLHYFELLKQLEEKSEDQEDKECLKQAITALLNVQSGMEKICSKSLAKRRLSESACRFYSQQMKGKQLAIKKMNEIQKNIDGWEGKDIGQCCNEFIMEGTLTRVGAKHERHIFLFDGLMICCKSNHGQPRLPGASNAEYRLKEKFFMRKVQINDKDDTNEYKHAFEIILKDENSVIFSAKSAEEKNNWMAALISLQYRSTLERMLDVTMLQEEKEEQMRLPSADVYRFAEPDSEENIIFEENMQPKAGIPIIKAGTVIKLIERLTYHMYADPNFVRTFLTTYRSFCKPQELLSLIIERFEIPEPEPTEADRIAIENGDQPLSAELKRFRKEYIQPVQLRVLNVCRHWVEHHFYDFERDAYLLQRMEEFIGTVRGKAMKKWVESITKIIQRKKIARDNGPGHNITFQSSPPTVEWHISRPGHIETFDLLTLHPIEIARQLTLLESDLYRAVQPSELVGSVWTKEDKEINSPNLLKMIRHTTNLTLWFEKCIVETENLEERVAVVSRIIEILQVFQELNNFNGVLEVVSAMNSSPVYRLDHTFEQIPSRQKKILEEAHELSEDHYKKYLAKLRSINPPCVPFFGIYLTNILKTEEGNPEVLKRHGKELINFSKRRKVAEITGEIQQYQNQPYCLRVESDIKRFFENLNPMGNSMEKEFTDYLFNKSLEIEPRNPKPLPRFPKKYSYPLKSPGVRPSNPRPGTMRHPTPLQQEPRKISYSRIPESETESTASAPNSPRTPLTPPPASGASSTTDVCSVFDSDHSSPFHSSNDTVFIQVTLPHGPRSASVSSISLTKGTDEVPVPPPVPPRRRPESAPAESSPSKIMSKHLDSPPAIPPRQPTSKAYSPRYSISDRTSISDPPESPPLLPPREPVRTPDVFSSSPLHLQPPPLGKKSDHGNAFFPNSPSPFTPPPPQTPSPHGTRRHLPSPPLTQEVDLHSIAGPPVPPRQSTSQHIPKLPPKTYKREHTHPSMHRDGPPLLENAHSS

[2] = Toxicity in BALB/c mouse xenografted with human PC-3 cells assessed as heart pathological change at 5 mg/kg,ip administrated once every 4 days for 24 days by hematoxylin and eosin staining based analysis; format: organism-based; conditions: in vivo, 576 h, time 24 day
[3] = Toxicity in BALB/c mouse xenografted with human PC-3 cells assessed as change in blood urea nitrogen level at 20 mg/kg,ip administrated once every 4 days for 24 days by automatic biochemical analyzer; format: organism-based; conditions: in vivo, 576 h, time 24 day
[4] = Toxicity in BALB/c mouse xenografted with human PC-3 cells assessed as heart pathological change at 20 mg/kg,ip administrated once every 4 days for 24 days by hematoxylin and eosin staining based analysis; format: organism-based; conditions: in vivo, 576 h, time 24 day
HUVEC = assay: Inhibition of cell migration in HUVEC cells at 0.5 to 12.5 uM measured after 48 hrs by crystal violet staining based transwell invasion assay; format: functional; conditions: Homo sapiens, dose 0.5-12.5 µM
[5] = target: T1, Son of sevenless homolog 1 (Homo sapiens); assay: Inhibition of human recombinant SOS1 at 10 uM relative to control
[6] = Toxicity in BALB/c mouse xenografted with human PC-3 cells assessed as change in ALT level at 5 mg/kg,ip administrated once every 4 days for 24 days by automatic biochemical analyzer; format: organism-based; conditions: in vivo, 576 h, time 24 day

Compound: COc1cc2ncnc(N[C@H](C)c3cccc(F)c3)c2cc1OC1CCOCC1
- inhibition [1]: Active
- Activity [2]: Toxic
- Activity [3]: Non-Toxic
- Activity [4]: Toxic
- inhibition (HUVEC): Active
- inhibition [5]: 97%
- Activity [6]: Non-Toxic
